Assay type in all cases: functional
One assay has as its system Trichophyton rubrum. In words: Antifungal activity against Trichophyton rubrum by serial dilution method after 7 days. Conditions: 168 h.
In another assay the test system is Aspergillus fumigatus. As to the kind of experiment: Antifungal activity against Aspergillus fumigatus by serial dilution method after 7 days. Particulars: 168 h.
In another assay the test system is Candida tropicalis. As to the kind of experiment: Antifungal activity against Candida tropicalis by serial dilution method after 24 hrs.
Another assay deals with Nannizzia gypsea. As to the kind of experiment: Antifungal activity against Microsporum gypseum by serial dilution method […].
A further assay has as its system Candida albicans. As to the kind of experiment: Antifungal activity against Candida albicans by serial dilution method after 24 hrs.
Assay [1] concerns Cryptococcus neoformans. As to the kind of experiment: Antifungal activity against Cryptococcus neoformans by serial dilution method after 72 hrs.
In assay [2] the test system is Cryptococcus neoformans. As to the kind of experiment: Selectivity ratio of compound MIC80 to voriconazole MIC80 for Cryptococcus neoformans.

Experimental findings from ChEMBL document CHEMBL1154276, “Discovery of highly potent novel antifungal azoles by structure-based rational design” (2009) are described below.

Converted amounts (≈) assume the structure as drawn.

One may read the MIC80 as an inhibitory concentration at the 80% level, which refers to growth in some studies and to a panel of isolates in others. Higher therefore signals weaker potency. As for `CN(CCCCOc1ccccc1Br)CC(O)(Cn1cncn1)c1ccc(F)cc1F` (centres undefined), the MIC80 against Trichophyton rubrum is 0.0625 µg/mL (≈ 0.126 µM); with Aspergillus fumigatus it was more than 64 µg/mL; with Candida tropicalis, 0.0156 µg/mL (≈ 0.0315 µM); in the assay with Nannizzia gypsea, 0.0625 µg/mL (≈ 0.126 µM); in the assay on Candida albicans it was 0.0156 µg/mL (≈ 0.0315 µM); in the assay with Cryptococcus neoformans [1], 0.004 µg/mL (≈ 0.00807 µM). Moreover, the Selectivity ratio with Cryptococcus neoformans [2] is given as 4.

On to `Cc1ccc(OCCCCN(C)CC(O)(Cn2cncn2)c2ccc(F)cc2F)cc1` (centres undefined), for which the MIC80 against Trichophyton rubrum is 0.0156 µg/mL (≈ 0.0362 µM); against Aspergillus fumigatus, 16 µg/mL (≈ 37.2 µM); in the assay on Candida tropicalis it was 0.004 µg/mL (≈ 0.00929 µM); in the assay on Nannizzia gypsea it was 0.0625 µg/mL (≈ 0.145 µM); in the assay on Candida albicans, 0.0156 µg/mL (≈ 0.0362 µM); in the assay with Cryptococcus neoformans [1], 0.0625 µg/mL (≈ 0.145 µM).

In the case of `Cc1ccccc1OCCCCN(C)CC(O)(Cn1cncn1)c1ccc(F)cc1F` (centres undefined), the MIC80 in the assay with Trichophyton rubrum was 0.0625 µg/mL (≈ 0.145 µM); against Aspergillus fumigatus, more than 64 µg/mL; with Candida tropicalis, 0.0156 µg/mL (≈ 0.0362 µM); with Nannizzia gypsea, 0.0625 µg/mL (≈ 0.145 µM); against Candida albicans, 0.0625 µg/mL (≈ 0.145 µM); in the assay with Cryptococcus neoformans [1], 0.0156 µg/mL (≈ 0.0362 µM).

Consider `CN(CCCCOc1ccc(F)cc1)CC(O)(Cn1cncn1)c1ccc(F)cc1F` (centres undefined), for which the MIC80 was 0.0156 µg/mL (≈ 0.0359 µM) against Trichophyton rubrum; 16 µg/mL (≈ 36.8 µM) in the assay with Aspergillus fumigatus; 0.004 µg/mL (≈ 0.00921 µM) with Candida tropicalis; 0.0625 µg/mL (≈ 0.144 µM) against Nannizzia gypsea; 0.0156 µg/mL (≈ 0.0359 µM) against Candida albicans; 0.0625 µg/mL (≈ 0.144 µM) in the assay on Cryptococcus neoformans [1].

For the compound `CN(CCCCOc1ccc(Cl)cc1)CC(O)(Cn1cncn1)c1ccc(F)cc1F` (centres undefined), the MIC80 came out at 0.0625 µg/mL (≈ 0.139 µM) in the assay with Trichophyton rubrum; 4 µg/mL (≈ 8.87 µM) in the assay with Aspergillus fumigatus; 0.001 µg/mL (≈ 0.00222 µM) against Candida tropicalis; 0.0156 µg/mL (≈ 0.0346 µM) against Nannizzia gypsea; 0.001 µg/mL (≈ 0.00222 µM) with Candida albicans; 0.0156 µg/mL (≈ 0.0346 µM) in the assay on Cryptococcus neoformans [1].

For `CN(CCCCOc1ccccc1Cl)CC(O)(Cn1cncn1)c1ccc(F)cc1F` (centres undefined), the MIC80 is 0.0625 µg/mL (≈ 0.139 µM) with Trichophyton rubrum; more than 64 µg/mL against Aspergillus fumigatus; 0.0156 µg/mL (≈ 0.0346 µM) against Candida tropicalis; 0.0625 µg/mL (≈ 0.139 µM) with Nannizzia gypsea; 0.0156 µg/mL (≈ 0.0346 µM) with Candida albicans; 0.0156 µg/mL (≈ 0.0346 µM) against Cryptococcus neoformans [1].

For `CN(CCCCOc1ccc(C(C)(C)C)cc1)CC(O)(Cn1cncn1)c1ccc(F)cc1F` (centres undefined), the MIC80 is 0.0625 µg/mL (≈ 0.132 µM) in the assay on Trichophyton rubrum; more than 64 µg/mL against Aspergillus fumigatus; 0.0625 µg/mL (≈ 0.132 µM) in the assay with Candida tropicalis; 0.0625 µg/mL (≈ 0.132 µM) with Nannizzia gypsea; 0.0625 µg/mL (≈ 0.132 µM) against Candida albicans; 0.25 µg/mL (≈ 0.529 µM) in the assay with Cryptococcus neoformans [1].

Turning to `Cc1cccc(OCCCCN(C)CC(O)(Cn2cncn2)c2ccc(F)cc2F)c1` (centres undefined), the MIC80 in the assay with Trichophyton rubrum amounted to 0.0625 µg/mL (≈ 0.145 µM); against Aspergillus fumigatus, 64 µg/mL (≈ 149 µM); against Candida tropicalis, 0.0156 µg/mL (≈ 0.0362 µM); in the assay on Nannizzia gypsea, 0.0625 µg/mL (≈ 0.145 µM); in the assay on Candida albicans it was 0.0156 µg/mL (≈ 0.0362 µM); against Cryptococcus neoformans [1], 0.0625 µg/mL (≈ 0.145 µM).

On to `CN(CCCCOc1cccc(N)c1)CC(O)(Cn1cncn1)c1ccc(F)cc1F` (centres undefined), for which the MIC80 against Trichophyton rubrum was 0.25 µg/mL (≈ 0.579 µM); with Aspergillus fumigatus, more than 64 µg/mL; in the assay with Candida tropicalis, 0.0156 µg/mL (≈ 0.0362 µM); against Nannizzia gypsea, 0.0625 µg/mL (≈ 0.145 µM); in the assay on Candida albicans, 0.0156 µg/mL (≈ 0.0362 µM); against Cryptococcus neoformans [1], 0.25 µg/mL (≈ 0.579 µM).

With `CN(CCCCOc1ccc(OCc2ccccc2)cc1)CC(O)(Cn1cncn1)c1ccc(F)cc1F` (centres undefined), the MIC80 against Trichophyton rubrum amounted to 0.0625 µg/mL (≈ 0.12 µM); against Aspergillus fumigatus it was 32 µg/mL (≈ 61.2 µM); against Candida tropicalis, 0.0156 µg/mL (≈ 0.0299 µM); in the assay with Nannizzia gypsea, 0.0156 µg/mL (≈ 0.0299 µM); with Candida albicans, 0.0156 µg/mL (≈ 0.0299 µM); in the assay with Cryptococcus neoformans [1], 0.0156 µg/mL (≈ 0.0299 µM).

On to `COc1ccc(OCCCCN(C)CC(O)(Cn2cncn2)c2ccc(F)cc2F)cc1` (centres undefined), for which the MIC80 with Trichophyton rubrum was 0.0156 µg/mL (≈ 0.0349 µM); in the assay with Aspergillus fumigatus it was 16 µg/mL (≈ 35.8 µM); in the assay with Candida tropicalis it was 0.004 µg/mL (≈ 0.00896 µM); against Nannizzia gypsea, 0.0625 µg/mL (≈ 0.14 µM); with Candida albicans it was 0.0156 µg/mL (≈ 0.0349 µM); against Cryptococcus neoformans [1], 0.0625 µg/mL (≈ 0.14 µM).

For `CN(CCCCOc1ccc(Br)cc1)CC(O)(Cn1cncn1)c1ccc(F)cc1F` (centres undefined), the MIC80 against Trichophyton rubrum came out at 0.0156 µg/mL (≈ 0.0315 µM); with Aspergillus fumigatus it was 4 µg/mL (≈ 8.07 µM); against Candida tropicalis it was 0.001 µg/mL (≈ 0.00202 µM); in the assay on Nannizzia gypsea it was 0.0156 µg/mL (≈ 0.0315 µM); against Candida albicans, 0.001 µg/mL (≈ 0.00202 µM); in the assay with Cryptococcus neoformans [1], 0.004 µg/mL (≈ 0.00807 µM). In addition, the Selectivity ratio in the assay with Cryptococcus neoformans [2] is recorded as 4.

For the compound `CN(CCCCOc1cccc(Br)c1)CC(O)(Cn1cncn1)c1ccc(F)cc1F` (centres undefined), the MIC80 turned out to be 0.0625 µg/mL (≈ 0.126 µM) in the assay on Trichophyton rubrum; 64 µg/mL (≈ 129 µM) in the assay with Aspergillus fumigatus; 0.001 µg/mL (≈ 0.00202 µM) with Candida tropicalis; 0.0156 µg/mL (≈ 0.0315 µM) in the assay with Nannizzia gypsea; 0.0625 µg/mL (≈ 0.126 µM) against Candida albicans; 0.0625 µg/mL (≈ 0.126 µM) in the assay on Cryptococcus neoformans [1].

For the compound `CN(CCCCOc1cccc([N+](=O)[O-])c1)CC(O)(Cn1cncn1)c1ccc(F)cc1F` (centres undefined), the MIC80 against Trichophyton rubrum was determined as 0.0625 µg/mL (≈ 0.135 µM); against Aspergillus fumigatus, 64 µg/mL (≈ 139 µM); against Candida tropicalis, 0.004 µg/mL (≈ 0.00867 µM); in the assay with Nannizzia gypsea it was 0.0625 µg/mL (≈ 0.135 µM); in the assay with Candida albicans, 0.0156 µg/mL (≈ 0.0338 µM); against Cryptococcus neoformans [1], 0.0625 µg/mL (≈ 0.135 µM).

Turning to `CN(CCCCOc1ccccc1[N+](=O)[O-])CC(O)(Cn1cncn1)c1ccc(F)cc1F` (centres undefined), the MIC80 with Trichophyton rubrum was 0.0625 µg/mL (≈ 0.135 µM); against Aspergillus fumigatus, more than 64 µg/mL; against Candida tropicalis, 0.0625 µg/mL (≈ 0.135 µM); against Nannizzia gypsea it was 0.0625 µg/mL (≈ 0.135 µM); against Candida albicans it was 0.0625 µg/mL (≈ 0.135 µM); against Cryptococcus neoformans [1], 0.25 µg/mL (≈ 0.542 µM).

Consider `CN(CCCCOc1ccc(N)cc1)CC(O)(Cn1cncn1)c1ccc(F)cc1F` (centres undefined), for which the MIC80 was 1 µg/mL (≈ 2.32 µM) in the assay with Trichophyton rubrum; more than 64 µg/mL against Aspergillus fumigatus; 0.0156 µg/mL (≈ 0.0362 µM) with Candida tropicalis; 0.25 µg/mL (≈ 0.579 µM) against Nannizzia gypsea; 0.0625 µg/mL (≈ 0.145 µM) in the assay on Candida albicans; 0.25 µg/mL (≈ 0.579 µM) with Cryptococcus neoformans [1].

With `CN(CCCCOc1ccc(OC(F)(F)F)cc1)CC(O)(Cn1cncn1)c1ccc(F)cc1F` (centres undefined), the MIC80 is 0.0156 µg/mL (≈ 0.0312 µM) in the assay with Trichophyton rubrum; more than 64 µg/mL against Aspergillus fumigatus; 0.004 µg/mL (≈ 0.00799 µM) in the assay with Candida tropicalis; 0.0625 µg/mL (≈ 0.125 µM) in the assay with Nannizzia gypsea; 0.0156 µg/mL (≈ 0.0312 µM) with Candida albicans; 0.0625 µg/mL (≈ 0.125 µM) against Cryptococcus neoformans [1].

`CN(CCCCOc1ccc([N+](=O)[O-])cc1)CC(O)(Cn1cncn1)c1ccc(F)cc1F` (centres undefined): the MIC80 in the assay with Trichophyton rubrum is 0.0625 µg/mL (≈ 0.135 µM); in the assay on Aspergillus fumigatus it was 64 µg/mL (≈ 139 µM); against Candida tropicalis it was 0.004 µg/mL (≈ 0.00867 µM); against Nannizzia gypsea, 0.0156 µg/mL (≈ 0.0338 µM); against Candida albicans, 0.001 µg/mL (≈ 0.00217 µM); against Cryptococcus neoformans [1], 0.0156 µg/mL (≈ 0.0338 µM).

With `CN(CCCCOc1ccccc1N)CC(O)(Cn1cncn1)c1ccc(F)cc1F` (centres undefined), the MIC80 was 1 µg/mL (≈ 2.32 µM) in the assay on Trichophyton rubrum; more than 64 µg/mL against Aspergillus fumigatus; 0.0156 µg/mL (≈ 0.0362 µM) in the assay with Candida tropicalis; 0.25 µg/mL (≈ 0.579 µM) in the assay on Nannizzia gypsea; 0.0625 µg/mL (≈ 0.145 µM) against Candida albicans; 1 µg/mL (≈ 2.32 µM) with Cryptococcus neoformans [1].

Turning to `OC(Cn1cncn1)(Cn1cncn1)c1ccc(F)cc1F` [FLUCONAZOLE], the MIC80 is 0.25 µg/mL (≈ 0.816 µM) in the assay on Trichophyton rubrum; more than 64 µg/mL in the assay on Aspergillus fumigatus; 1 µg/mL (≈ 3.27 µM) in the assay with Candida tropicalis; 1 µg/mL (≈ 3.27 µM) against Nannizzia gypsea; 0.25 µg/mL (≈ 0.816 µM) against Candida albicans; 1 µg/mL (≈ 3.27 µM) in the assay with Cryptococcus neoformans [1].

On to `CCC(C)n1ncn(-c2ccc(N3CCN(c4ccc(OCC5COC(Cn6cncn6)(c6ccc(Cl)cc6Cl)O5)cc4)CC3)cc2)c1=O` (centres undefined) [ITRACONAZOLE], for which the MIC80 in the assay with Trichophyton rubrum is 0.125 µg/mL (≈ 0.177 µM); in the assay with Aspergillus fumigatus it was 2 µg/mL (≈ 2.83 µM); with Candida tropicalis, 0.0156 µg/mL (≈ 0.0221 µM); with Nannizzia gypsea it was 0.125 µg/mL (≈ 0.177 µM); against Candida albicans, 0.125 µg/mL (≈ 0.177 µM); in the assay on Cryptococcus neoformans [1] it was 0.5 µg/mL (≈ 0.709 µM).

With `C[C@@H](c1ncncc1F)[C@](O)(Cn1cncn1)c1ccc(F)cc1F` [VORICONAZOLE], the MIC80 against Trichophyton rubrum amounted to 0.0156 µg/mL (≈ 0.0447 µM); in the assay on Aspergillus fumigatus it was 0.25 µg/mL (≈ 0.716 µM); against Candida tropicalis, 0.001 µg/mL (≈ 0.00286 µM); against Nannizzia gypsea, 0.0156 µg/mL (≈ 0.0447 µM); in the assay on Candida albicans, 0.0156 µg/mL (≈ 0.0447 µM); with Cryptococcus neoformans [1] it was 0.0156 µg/mL (≈ 0.0447 µM).
